Numbers after ± are expanded uncertainties.
Assay: molar heat capacity at constant pressure
Conditions: 101.33 kPa, Metastable crystal, Small (less than 1 g) adiabatic calorimetry

CCCCn1cc[n+](C)c1.F[P-](F)(F)(F)(F)F [1-butyl-3-methylimidazolium hexafluorophosphate]
molar heat capacity at constant pressure (125.32 K): 185.9 ± 1 J/K/mol
molar heat capacity at constant pressure (127.15 K): 191.2 ± 1 J/K/mol
molar heat capacity at constant pressure (127.23 K): 188.2 ± 1 J/K/mol
molar heat capacity at constant pressure (129.05 K): 193.4 ± 1 J/K/mol
molar heat capacity at constant pressure (129.15 K): 190.5 ± 1 J/K/mol
molar heat capacity at constant pressure (130.95 K): 195.6 ± 1 J/K/mol
molar heat capacity at constant pressure (131.06 K): 192.8 ± 1 J/K/mol
molar heat capacity at constant pressure (132.85 K): 197.9 ± 1.1 J/K/mol
molar heat capacity at constant pressure (132.97 K): 195.1 ± 1 J/K/mol
molar heat capacity at constant pressure (134.75 K): 200.2 ± 1.1 J/K/mol
molar heat capacity at constant pressure (134.88 K): 197.5 ± 1.1 J/K/mol
molar heat capacity at constant pressure (136.65 K): 202.5 ± 1.1 J/K/mol
molar heat capacity at constant pressure (136.8 K): 199.9 ± 1.1 J/K/mol
molar heat capacity at constant pressure (138.55 K): 204.9 ± 1.1 J/K/mol
molar heat capacity at constant pressure (138.71 K): 202.4 ± 1.1 J/K/mol
molar heat capacity at constant pressure (140.45 K): 207.2 ± 1.1 J/K/mol
molar heat capacity at constant pressure (140.62 K): 204.8 ± 1.1 J/K/mol
molar heat capacity at constant pressure (142.35 K): 209.7 ± 1.1 J/K/mol
molar heat capacity at constant pressure (142.52 K): 207.4 ± 1.1 J/K/mol
molar heat capacity at constant pressure (144.24 K): 212.3 ± 1.1 J/K/mol
molar heat capacity at constant pressure (144.42 K): 209.9 ± 1.1 J/K/mol
molar heat capacity at constant pressure (146.13 K): 214.9 ± 1.1 J/K/mol
molar heat capacity at constant pressure (146.33 K): 212.5 ± 1.1 J/K/mol
molar heat capacity at constant pressure (148.01 K): 217.6 ± 1.2 J/K/mol
molar heat capacity at constant pressure (148.23 K): 215.1 ± 1.1 J/K/mol
molar heat capacity at constant pressure (149.9 K): 220.4 ± 1.2 J/K/mol
molar heat capacity at constant pressure (150.13 K): 217.7 ± 1.2 J/K/mol
molar heat capacity at constant pressure (151.78 K): 223.4 ± 1.2 J/K/mol
molar heat capacity at constant pressure (152.02 K): 220.4 ± 1.2 J/K/mol
molar heat capacity at constant pressure (153.65 K): 226.5 ± 1.2 J/K/mol
molar heat capacity at constant pressure (153.91 K): 223.1 ± 1.2 J/K/mol
molar heat capacity at constant pressure (155.52 K): 229.7 ± 1.2 J/K/mol
molar heat capacity at constant pressure (155.79 K): 225.9 ± 1.2 J/K/mol
molar heat capacity at constant pressure (157.39 K): 233.2 ± 1.2 J/K/mol
molar heat capacity at constant pressure (157.67 K): 228.7 ± 1.2 J/K/mol
molar heat capacity at constant pressure (159.24 K): 236.9 ± 1.2 J/K/mol
molar heat capacity at constant pressure (159.55 K): 231.5 ± 1.2 J/K/mol
molar heat capacity at constant pressure (161.09 K): 241 ± 1.3 J/K/mol
molar heat capacity at constant pressure (161.42 K): 234.4 ± 1.2 J/K/mol
molar heat capacity at constant pressure (162.93 K): 245.5 ± 1.3 J/K/mol
molar heat capacity at constant pressure (163.29 K): 237.3 ± 1.3 J/K/mol
molar heat capacity at constant pressure (164.76 K): 250.5 ± 1.3 J/K/mol
molar heat capacity at constant pressure (165.15 K): 240.3 ± 1.3 J/K/mol
molar heat capacity at constant pressure (166.58 K): 256.4 ± 1.3 J/K/mol
molar heat capacity at constant pressure (167.01 K): 243.2 ± 1.3 J/K/mol
molar heat capacity at constant pressure (168.38 K): 263.5 ± 1.4 J/K/mol
molar heat capacity at constant pressure (168.87 K): 246.3 ± 1.3 J/K/mol
molar heat capacity at constant pressure (170.16 K): 272.5 ± 1.4 J/K/mol
molar heat capacity at constant pressure (170.71 K): 249.4 ± 1.3 J/K/mol
molar heat capacity at constant pressure (171.91 K): 285.3 ± 1.5 J/K/mol
molar heat capacity at constant pressure (172.55 K): 252.6 ± 1.3 J/K/mol
molar heat capacity at constant pressure (173.61 K): 306.7 ± 1.7 J/K/mol
molar heat capacity at constant pressure (174.39 K): 256.1 ± 1.3 J/K/mol
molar heat capacity at constant pressure (175.22 K): 360.5 ± 2.1 J/K/mol
molar heat capacity at constant pressure (176.22 K): 258.9 ± 1.4 J/K/mol
molar heat capacity at constant pressure (176.68 K): 448.8 ± 2.6 J/K/mol
molar heat capacity at constant pressure (178.04 K): 260.8 ± 1.4 J/K/mol
molar heat capacity at constant pressure (178.27 K): 265.8 ± 1.4 J/K/mol
molar heat capacity at constant pressure (179.86 K): 263.5 ± 1.4 J/K/mol
molar heat capacity at constant pressure (180.09 K): 261.1 ± 1.4 J/K/mol
molar heat capacity at constant pressure (181.68 K): 266.1 ± 1.4 J/K/mol
molar heat capacity at constant pressure (181.91 K): 261.4 ± 1.4 J/K/mol
molar heat capacity at constant pressure (183.5 K): 268.6 ± 1.4 J/K/mol
molar heat capacity at constant pressure (183.75 K): 262.7 ± 1.4 J/K/mol
molar heat capacity at constant pressure (185.31 K): 270.9 ± 1.4 J/K/mol
molar heat capacity at constant pressure (185.58 K): 264.6 ± 1.4 J/K/mol
molar heat capacity at constant pressure (187.12 K): 273 ± 1.4 J/K/mol
molar heat capacity at constant pressure (187.4 K): 266.8 ± 1.4 J/K/mol
molar heat capacity at constant pressure (188.92 K): 274.8 ± 1.4 J/K/mol
molar heat capacity at constant pressure (189.22 K): 269.2 ± 1.4 J/K/mol
molar heat capacity at constant pressure (190.72 K): 276.4 ± 1.4 J/K/mol
molar heat capacity at constant pressure (191.04 K): 271.8 ± 1.4 J/K/mol
molar heat capacity at constant pressure (192.53 K): 277.7 ± 1.4 J/K/mol
molar heat capacity at constant pressure (192.86 K): 274.6 ± 1.4 J/K/mol
molar heat capacity at constant pressure (194.33 K): 278.7 ± 1.5 J/K/mol
molar heat capacity at constant pressure (194.66 K): 277.6 ± 1.4 J/K/mol
molar heat capacity at constant pressure (196.13 K): 279.3 ± 1.5 J/K/mol
molar heat capacity at constant pressure (196.47 K): 280.8 ± 1.5 J/K/mol
molar heat capacity at constant pressure (197.94 K): 279.8 ± 1.5 J/K/mol
molar heat capacity at constant pressure (198.27 K): 284.1 ± 1.5 J/K/mol
molar heat capacity at constant pressure (199.74 K): 280 ± 1.5 J/K/mol
molar heat capacity at constant pressure (200.05 K): 287.7 ± 1.5 J/K/mol

Source: the NIST ThermoML archive (doi:10.1016/j.jct.2016.07.012)
